Tests used:
[1] = target: T1, 5HT1A-serotoninergic receptor (Homo sapiens, UniProt P08908); experiment: Radioligand binding, cloned 5-HT1A-serotoninergic receptor in HeLa membranes ([3H]8-OH-DPAT); parameters: expressed in transfected cells; host or cells: HeLa; settings: cloned human 5-HT1A receptor in HeLa membranes, mean Ki, read-out: Affinity for 5-HT1A receptor, cloned receptors (Ki)
T1 sequence (P08908 1-422): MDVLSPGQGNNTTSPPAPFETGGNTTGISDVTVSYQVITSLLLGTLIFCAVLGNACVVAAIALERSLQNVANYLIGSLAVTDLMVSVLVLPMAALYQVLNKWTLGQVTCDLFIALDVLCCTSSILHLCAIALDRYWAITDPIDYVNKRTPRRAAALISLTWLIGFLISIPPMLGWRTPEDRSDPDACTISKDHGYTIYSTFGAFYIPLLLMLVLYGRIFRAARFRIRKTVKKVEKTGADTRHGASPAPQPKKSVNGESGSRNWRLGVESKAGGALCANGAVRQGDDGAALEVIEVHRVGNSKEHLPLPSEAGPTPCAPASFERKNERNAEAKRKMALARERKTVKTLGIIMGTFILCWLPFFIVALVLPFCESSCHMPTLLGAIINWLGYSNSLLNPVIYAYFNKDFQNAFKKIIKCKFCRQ
Procedure: HeLa cells were grown as monolayers in Dulbecco's Modified Eagle medium (DMEM) supplemented with 10% foetal calf serum and gentamicin (100 μg/mL), 5% CO2, at 37° C. The cells were detached from the growth flask at 95% confluence by a cell scraper and were lysed in ice-cold Tris-5-mM and EDTA-5-mM buffer (pH 7.4). The homogenates were centrifuged at 40000×g×20 minutes and the membranes were resuspended in a small volume of ice-cold buffer containing Tris 5 mM and EDTA 5 mM (pH 7.4), and immediately frozen and stored at −70° C. until use.
Non-specific binding was determined in the presence of 10 μM 5-HT. The incubation was stopped by addition of ice-cold Tris buffer and rapid filtration through 0.2% polyethyleneimine-pretreated Schleicher & Schuell filters.
(§1) Data were expressed as mean Ki.

[2] = target: T2, α1d-adrenoceptor (recombinant) (Homo sapiens, UniProt P25100); experiment: Radioligand binding, cloned α1d-adrenoceptor ([3H]prazosin); settings: read-out: Affinity for recombinant α1d-adrenoceptor, cloned receptors (Ki)
T2 sequence (P25100 1-572): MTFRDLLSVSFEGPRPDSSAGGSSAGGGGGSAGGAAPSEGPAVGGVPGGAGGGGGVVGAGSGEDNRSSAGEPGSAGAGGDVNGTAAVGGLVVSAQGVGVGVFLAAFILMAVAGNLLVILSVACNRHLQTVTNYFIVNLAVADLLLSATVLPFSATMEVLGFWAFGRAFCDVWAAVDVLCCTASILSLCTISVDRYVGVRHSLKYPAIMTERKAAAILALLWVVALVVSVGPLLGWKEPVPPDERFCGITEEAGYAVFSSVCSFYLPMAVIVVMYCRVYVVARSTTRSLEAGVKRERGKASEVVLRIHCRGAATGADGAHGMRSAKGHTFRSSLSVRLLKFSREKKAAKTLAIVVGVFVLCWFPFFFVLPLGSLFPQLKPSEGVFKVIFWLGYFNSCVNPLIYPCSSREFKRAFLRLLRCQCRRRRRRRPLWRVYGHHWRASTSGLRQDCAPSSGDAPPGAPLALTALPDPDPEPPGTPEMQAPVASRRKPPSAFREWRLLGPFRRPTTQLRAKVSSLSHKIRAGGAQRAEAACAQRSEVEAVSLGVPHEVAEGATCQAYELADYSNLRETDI
Procedure: (§2) Determination of affinity for cloned subtypes of α1-adrenoceptor subtypes was performed in membranes from cells transfected by electroporation with DNA expressing the genes encoding each α1-adrenoceptor subtype.
(§3) Non-specific binding was determined in the presence of 10 μM phentolamine.
(§4) Incubation was stopped by addition of ice-cold Tris buffer and rapid filtration through 0.2% polyethyleneimine-pretreated Schleicher & Schuell GF52 filters.
as §1

[3] = target: T3, α1b-adrenoceptor (recombinant) (Homo sapiens, UniProt P35368); experiment: Radioligand binding, cloned α1b-adrenoceptor ([3H]prazosin); settings: read-out: Affinity for recombinant α1b-adrenoceptor, cloned receptors (Ki)
T3 construct: expressed in transfected cells
T3 sequence (P35368 1-520): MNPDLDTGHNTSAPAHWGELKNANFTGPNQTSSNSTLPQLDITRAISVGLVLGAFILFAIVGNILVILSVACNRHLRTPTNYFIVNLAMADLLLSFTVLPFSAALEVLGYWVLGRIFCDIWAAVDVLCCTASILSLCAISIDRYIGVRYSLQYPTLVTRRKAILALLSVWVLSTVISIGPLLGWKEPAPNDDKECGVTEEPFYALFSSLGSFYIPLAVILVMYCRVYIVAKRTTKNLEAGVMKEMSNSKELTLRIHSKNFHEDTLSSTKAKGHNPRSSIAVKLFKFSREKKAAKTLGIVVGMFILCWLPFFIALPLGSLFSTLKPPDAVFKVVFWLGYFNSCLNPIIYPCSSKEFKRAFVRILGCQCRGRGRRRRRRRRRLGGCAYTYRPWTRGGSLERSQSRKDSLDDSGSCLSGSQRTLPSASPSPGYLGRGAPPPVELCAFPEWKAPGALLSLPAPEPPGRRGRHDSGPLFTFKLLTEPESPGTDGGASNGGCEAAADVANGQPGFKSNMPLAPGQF
Procedure: as §2, §3, §4, §1

α1L adrenoceptor = target: T4, α1L adrenoceptor (Oryctolagus cuniculus, UniProt O02824); experiment: Functional antagonism of noradrenaline-induced contractions of rabbit aorta pretreated with chloroethylclonidine; type: biochemical; settings: NA-induced contractions of rabbit aorta pretreated with chloroethylclonidine
T4 sequence (O02824 1-466): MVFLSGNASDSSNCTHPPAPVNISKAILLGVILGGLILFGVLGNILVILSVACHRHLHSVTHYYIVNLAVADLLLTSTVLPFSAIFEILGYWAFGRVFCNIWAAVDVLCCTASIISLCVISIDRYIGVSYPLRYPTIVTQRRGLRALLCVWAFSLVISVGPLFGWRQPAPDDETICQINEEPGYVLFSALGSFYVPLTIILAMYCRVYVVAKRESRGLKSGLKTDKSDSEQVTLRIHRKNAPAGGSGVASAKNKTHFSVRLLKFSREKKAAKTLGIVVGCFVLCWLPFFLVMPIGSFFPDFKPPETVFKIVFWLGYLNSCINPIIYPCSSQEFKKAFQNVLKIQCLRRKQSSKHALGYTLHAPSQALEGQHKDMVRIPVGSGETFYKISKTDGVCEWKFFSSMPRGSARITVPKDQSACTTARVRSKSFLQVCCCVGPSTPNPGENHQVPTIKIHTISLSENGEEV
Procedure: Adult male New Zealand rabbits were sacrificed by cervical dislocation. The aorta was removed, placed in Krebs-Henseleit buffer and dissected free of adhering tissue. […] Desmethylimipramine (0.1 μm) and corticosterone (1 μM) to block neuronal and extraneuronal uptake of NA, (±)-propranol (1 μM) to block β adrenoceptors and yohimbine (0.1 μM) to block α2 adrenoceptors, were added to the buffer.
The preparations were allowed to equilibrate for 60 minutes and then primed every thirty minutes with 10 μM NA for three times. The aortic rings were then incubated with the alkylating agent chloroethylclonidine (5×10^−5 M) for 30 minutes and then washed extensively three times (in 0.5 hours) before constructing the NA-concentration/response curve. After washout of NA and re-equilibration of the tissue (45 minutes), the drug to be tested was added and, after 30 minutes, a second NA-cumulative-concentration/response curve constructed.
Each antagonist concentration was tested using 2-3 aortic rings from different rabbits.
Dose ratios (i.e., the ratio between the concentrations of NA required to produce half-maximal response in the presence and in the absence of the test antagonist) were calculated for each concentration of the compounds. The logarithm of these dose ratio-1 was plotted against the logarithm of the compound concentrations (Schild plot) to evaluate the affinity constant Kb.
When only one or two concentrations of the test compounds were utilised, the apparent Kb value was calculated using the formula: Kb=[B]/(DOSE RATIO-1), where B is the antagonist concentration.

[4] = target: T5, α1a-adrenoceptor (recombinant) (Homo sapiens, UniProt P35348); experiment: Radioligand binding, cloned α1a-adrenoceptor ([3H]prazosin); settings: read-out: Affinity for recombinant α1a-adrenoceptor, cloned receptors (Ki)
T5 construct: expressed in transfected cells
T5 sequence (P35348 1-466): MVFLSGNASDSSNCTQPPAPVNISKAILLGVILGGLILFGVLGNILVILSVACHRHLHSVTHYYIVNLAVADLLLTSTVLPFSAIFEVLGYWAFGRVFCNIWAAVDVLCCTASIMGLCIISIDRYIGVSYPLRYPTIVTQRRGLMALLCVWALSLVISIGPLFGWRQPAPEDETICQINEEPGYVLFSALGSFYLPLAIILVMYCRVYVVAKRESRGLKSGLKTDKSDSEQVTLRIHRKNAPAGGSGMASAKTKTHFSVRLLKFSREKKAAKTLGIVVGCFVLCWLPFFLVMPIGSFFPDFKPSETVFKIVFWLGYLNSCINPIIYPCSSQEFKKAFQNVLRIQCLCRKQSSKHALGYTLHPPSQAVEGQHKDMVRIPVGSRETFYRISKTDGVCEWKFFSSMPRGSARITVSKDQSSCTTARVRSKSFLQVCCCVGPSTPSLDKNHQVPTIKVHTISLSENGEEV
Procedure: as §2, §3, §4, §1

Row | Structure (SMILES) | Ki [1] [nM] | Ki [2] [nM] | Ki [3] [nM] | Functional affinity for the α1L adrenoceptor subtype, pKb (α1L adrenoceptor) | Ki [4] [nM]
1 | COc1ccc(Cl)cc1N1CCN(CCCNC(=O)c2cccc3c(=O)c(C)c(NC(=O)OC(C)(C)C)oc23)CC1.O [Example 3, 2-(1,1-Dimethylethoxycarbonylamino)-8-{3-[4-(5-chloro-2-methoxyphenyl)-1-piperazinyl]propylcarbamoyl}-3-methyl-4-oxo-4H-1-benzopyran monohydrate] | 81.9 | 0.45 | 0.32 | 8.43 | 0.2
2 | COc1ccc(Cl)cc1N1CCN(CCCNC(=O)c2cccc3c(=O)c(C)c(C(=O)N(C)C)oc23)CC1 [Example 6, 8-{3-[4-(5-Chloro-2-methoxyphenyl)-1-piperazinyl]propylcarbamoyl}-3-methyl-2-dimethylcarbamoyl-4-oxo-4H-1-benzopyran] | 68.4 | 3.83 | 3.56 | 8.55 | 0.23
3 | Cc1c(C(N)=O)oc2c(C(=O)NCCCN3CCN(c4cc(F)ccc4OCC(F)(F)F)CC3)cccc2c1=O [Example 8, 2-Carbamoyl-8-<3-{4-[5-fluoro-2-(2,2,2-trifluoroethoxy)phenyl]-1-piperazinyl}-propylcarbamoyl>-3-methyl-4-oxo-4H-1-benzopyran] | 39.5 | 3.02 | 9.91 | 9 | 0.144
4 | COc1ccc(Cl)cc1N1CCN(CCCNC(=O)c2cccc3c(=O)c(C)c(C#N)oc23)CC1 [Example 11, 8-{3-[4-(5-Chloro-2-methoxyphenyl)-1-piperazinyl]propylcarbamoyl}-2-cyano-3-methyl-4-oxo-4H-1-benzopyran] | 24.4 | 2.72 | 0.78 | 8.45 | 0.38
5 | COc1ccc(C(F)(F)F)cc1N1CCN(CCCNC(=O)c2cccc3c(=O)c(C)c(-c4ccccc4)oc23)CC1 [Example 17, 8-{3-[4-(2-Methoxy-5-trifluoromethylphenyl)-1-piperazinyl]propylcarbamoyl}-3-methyl-4-oxo-2-phenyl-4H-1-benzopyran] | – | 13.1 | 9.42 | 8.03 | 1.6
6 | Cc1c(-c2ccccc2)oc2c(C(=O)NCCCN3CCN(c4ccc(F)cc4OCC(F)(F)F)CC3)cccc2c1=O [Example 19, 8-<3-{4-[4-Fluoro-2-(2,2,2-trifluoroethoxy)phenyl]-1-piperazinyl}propylcarbamoyl>-3-methyl-4-oxo-2-phenyl-4H-1-benzopyran] | 22.4 | 4.79 | 2.61 | 8.72 | 0.136

From patent US6403594B1, “Benzopyran derivatives” (Recordati, S.A. Chemical and Pharmaceutical Company, priority 1999, dated 2002)
